Article PMC6014988, “Precision therapeutic targeting of human cancer cell motility” (Nature Communications, 2018)

How the values were obtained:
[1] = target: T1, client kinase binding to CDC37/HSP90β heterocomplexes in HEK293T cells (Homo sapiens, UniProt P08238+Q16543); assay: LUMIER assay of client kinase binding; type: cell-based
T1 construct: expressed in transfected cells; host or cells: HEK293T
Procedure: The LUMIER assay was performed as described, using reagents generously provided by that group.
Supplementary Figures 17. KBU2046-mediated changes in the signature of client proteins bound to HSP90β/CDC37 mediate effects upon cell motility.
LUMIER assay (a). HEK293T cells stably transfected with HSP90β-luciferase were transfected with 1 of 420 different FLAG-tagged protein kinases, treated with 10 µM KBU2046 for 3 days, and LUMIER assays performed as described 12. All experiments had N = 5 vehicle treated control plus N = 5 KBU2046 treated separate wells of cells. Those yielding a t-test p value <0.05 […]
in experiment #1, or those whose values were at or below baseline, were repeated in experiment […]
hetercomplex association with KBU2046 treatment in the same direction in both experiments were selected. Of 420 kinase proteins tested, 17 (4%) met these criteria (graphically depicted in manuscript Fig. 6a). For these 17 kinases, the experiment was repeated except that HEK293T cells were treated with TGFβ for the last 24 hrs of the 3 day incubation (graphically depicted in manuscript Fig. 6b). Wound healing assay (b-d). […]

[2] = target: T2, General transcription factor II-I (Homo sapiens, UniProt P78347); assay: ProtoArray binding, General transcription factor II-I; conditions: 10 fold excess free KBU2046
T2 construct: purchased Invitrogen
T2 sequence (P78347 whole entry): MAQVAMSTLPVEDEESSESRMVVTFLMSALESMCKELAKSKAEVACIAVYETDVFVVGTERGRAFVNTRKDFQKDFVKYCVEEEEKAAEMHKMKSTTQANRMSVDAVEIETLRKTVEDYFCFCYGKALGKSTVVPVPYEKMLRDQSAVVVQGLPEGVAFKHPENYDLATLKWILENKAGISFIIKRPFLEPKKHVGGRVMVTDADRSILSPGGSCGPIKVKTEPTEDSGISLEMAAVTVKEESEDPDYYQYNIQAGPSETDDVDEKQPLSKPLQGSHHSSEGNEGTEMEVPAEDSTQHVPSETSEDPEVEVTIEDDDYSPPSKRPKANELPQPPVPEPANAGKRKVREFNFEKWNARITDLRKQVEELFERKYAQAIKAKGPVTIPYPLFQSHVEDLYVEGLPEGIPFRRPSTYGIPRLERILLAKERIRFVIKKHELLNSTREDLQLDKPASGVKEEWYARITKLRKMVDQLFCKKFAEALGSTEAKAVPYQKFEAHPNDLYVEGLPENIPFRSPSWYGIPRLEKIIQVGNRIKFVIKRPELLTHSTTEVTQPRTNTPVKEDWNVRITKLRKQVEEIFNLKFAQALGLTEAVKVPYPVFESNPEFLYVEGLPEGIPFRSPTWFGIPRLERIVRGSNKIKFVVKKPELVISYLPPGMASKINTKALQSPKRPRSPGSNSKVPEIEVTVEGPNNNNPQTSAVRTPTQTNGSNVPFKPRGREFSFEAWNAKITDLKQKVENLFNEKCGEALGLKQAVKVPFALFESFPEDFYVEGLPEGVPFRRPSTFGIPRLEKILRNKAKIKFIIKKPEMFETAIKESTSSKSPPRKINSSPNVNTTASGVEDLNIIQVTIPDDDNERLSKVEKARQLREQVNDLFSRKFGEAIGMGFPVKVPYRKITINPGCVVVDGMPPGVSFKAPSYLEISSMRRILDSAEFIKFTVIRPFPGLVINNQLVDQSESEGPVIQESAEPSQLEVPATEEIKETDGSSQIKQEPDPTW
Procedure: The ProtoArray® assay, using the Human Protein Microarray platform, was performed by Invitrogen. […]
(d) Protein array hybridization. KBU2046-biotin was hybridized to ProtoArray® Human Protein Microarray’s at 0.5 and 10 µM with and without 10 fold excess free KBU2046. We first sought proteins that met the following criteria, and did so at both 0.5 and 10 µM concentrations of KBU2046-biotin (in the absence of free KBU2046): Z-Score greater than 2.5, Z-Factor greater than 0.5, CI P-value less than 0.05, negative control value <2,000 (relative fluorescence units; RFUs), and a signal/negative control signal of >10 and >5 for 10 µM and 0.5 µM conditions, respectively. This yielded 3 proteins, shown in table, for an initial hit rate of 0.03%. We then required free KBU2046 to inhibit binding by >75%. […]
There were two additional notable findings from protein array studies. First, the positive control used in protein arrays was staurosporine. Staurosporine is similar to genistein in that both are small compound natural products that are broad spectrum kinase inhibitors. In contrast to the lack of binding by KBU2046-biotin, staurosporine bound to 214 proteins at levels that were >/= 10 fold above that of background. The vast majority of these proteins were kinases. Second, both HSP90β and CDC37 were present on the protein arrays, and were not bound by KBU2046-

[3] = target: T3, CDC37/HSP90β heterocomplex (Homo sapiens, UniProt P08238+Q16543); assay: DARTS assay with CDC37 and HSP90β combined; type: binding
T3 construct: made in house; host or cells: E. coli (Rosetta BL-21 for HSP90β, BL-21 DE-3 for CDC37)
T3 sequence (P08238 whole entry): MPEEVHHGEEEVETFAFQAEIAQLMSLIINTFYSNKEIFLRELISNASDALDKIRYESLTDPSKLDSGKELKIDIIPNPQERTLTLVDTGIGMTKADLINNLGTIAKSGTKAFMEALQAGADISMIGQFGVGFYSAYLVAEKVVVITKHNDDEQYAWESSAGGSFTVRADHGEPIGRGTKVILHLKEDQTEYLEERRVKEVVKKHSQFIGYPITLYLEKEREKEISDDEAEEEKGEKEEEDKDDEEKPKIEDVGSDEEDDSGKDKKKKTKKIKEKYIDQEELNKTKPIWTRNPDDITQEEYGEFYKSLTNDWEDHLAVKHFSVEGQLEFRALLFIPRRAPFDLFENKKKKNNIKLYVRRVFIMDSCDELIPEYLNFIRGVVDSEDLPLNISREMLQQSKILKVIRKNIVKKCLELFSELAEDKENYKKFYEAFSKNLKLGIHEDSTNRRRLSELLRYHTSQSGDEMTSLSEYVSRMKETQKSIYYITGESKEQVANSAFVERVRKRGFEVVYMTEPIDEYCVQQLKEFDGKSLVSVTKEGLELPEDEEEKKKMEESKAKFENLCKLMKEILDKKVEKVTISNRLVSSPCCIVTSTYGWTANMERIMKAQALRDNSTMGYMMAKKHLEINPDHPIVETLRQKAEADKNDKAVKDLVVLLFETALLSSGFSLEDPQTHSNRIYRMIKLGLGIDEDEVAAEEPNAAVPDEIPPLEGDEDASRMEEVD
T3 sequence (Q16543 whole entry): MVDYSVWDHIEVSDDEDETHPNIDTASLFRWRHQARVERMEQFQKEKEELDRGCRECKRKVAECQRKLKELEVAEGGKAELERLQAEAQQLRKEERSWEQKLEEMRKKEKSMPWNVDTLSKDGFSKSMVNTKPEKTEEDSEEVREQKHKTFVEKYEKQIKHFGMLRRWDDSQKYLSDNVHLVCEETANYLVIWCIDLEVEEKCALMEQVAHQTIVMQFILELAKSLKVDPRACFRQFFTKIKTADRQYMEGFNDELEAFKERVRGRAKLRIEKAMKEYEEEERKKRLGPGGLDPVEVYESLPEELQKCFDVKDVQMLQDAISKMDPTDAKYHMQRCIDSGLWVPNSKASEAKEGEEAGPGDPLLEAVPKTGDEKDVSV
Procedure: Fig. 5 KBU2046 stabilizes CDC37/HSP90β heterocomplexes. a KBU2046 stabilizes HSP90β/CDC37 heterocomplexes in a DARTS assay. Equimolar amounts of HSP90β and CDC37 protein were pre-incubated with KBU2046, and resultant thermolysin reaction products were detected by silver stain following SDS-PAGE. […] Atoms within 5 angstroms of KBU2046 are colored by element (carbon, green; nitrogen, blue; oxygen, red). d Potential surface of the whole CDC37/HSP90β dimer (color code: green—HSP90β; gray—CDC37; cyan—Arg167 from CDC37 bisecting the larger pocket and creating a new cleft into which KBU2046 binds)
Fluorescent thermal shift, isothermal titration calorimetry, and biolayer interferometry assays[46] were all performed as described by us using MEK4EE (37-399, S257E, T261E) cloned into pMCSG7 and KRX Competent E. coli cells (Promega Inc.) and above denoted full-length HSP90B and CDC37 vectors and Rosetta BL-21 and BL-21 DE-3 competent E. coli cells, respectively. DARTS assays were conducted as described, using equimolar amounts of CDC37 and HSP90β, thermolysin digestion, and silver stain visualization (ProteoSilver Silver Stain Kit, Sigma-Aldrich).

[4] = system: human prostate cells (PC3, PC3-M, 1532NPTX, 1542NPTX, 1532CPTX, 1542CPTX); assay: Cell invasion, panel of human prostate cells; type: cell-based
Procedure: Human prostate metastatic cells (PC3, PC3-M), and HPV-transformed normal (1532NPTX, 1542NPTX) and primary cancer (1532CPTX, 1542CPTX) cells, were treated with 10 µM genistein (G), KBU2046 (46), or vehicle (CO), and after 3 days, cell invasion was measured. Values are mean ± SEM of a single experiment in replicates of N = 4, with similar findings in multiple separate experiments (also N = 4). c Single-cell migration. Cell migration was measured after treatment for 3 days with 10 µM KBU2046 or vehicle (control). Values are mean ± SEM of a single experiment in replicates of N = 24, with similar findings in a separate experiment (also N = 24). *Denotes Student’s t-test P value <0.05, compared to controls. d Human cord blood hematopoietic stem cell colony formation assay. Values are the mean ± SD number of total, CFU-GM, CFU-GEMM, or BFU-E colonies at 14 days after treatment with KBU2046, from a single experiment in replicates of N = 2. e Induction of estrogen-responsive genes. Values are the mean ± SD of a single experiment, with similar results seen in a separate experiment, both in replicates of N = 2
Boyden chamber cell invasion assays were performed as previously described by us[30], using either denatured collagen (BD Biosciences) or type IV human collagen (BD Biosciences), with all experiments repeated, each in N = 4 replicates. […]

T1 sequence (P08238 whole entry): as the sequence (P08238 whole entry) above
T1 sequence (Q16543 whole entry): as the sequence (Q16543 whole entry) above

For `O=C1c2ccccc2OCC1c1ccc(F)cc1` (racemic) [KBU2046, (±)-3(4-fluorophenyl)chroman-4-one], the “number of kinases with decreased binding” value ([1]; 10 µM, 3 days) was 7, the “number of kinases with increased binding” value ([1]; 10 µM, 3 days) was 10 and the “RAF1 binding to complexes” value ([1]; TGFβ-treated cells) was “decreased binding”. For the same compound, the “RIPK1 binding to complexes” value ([1]; TGFβ-treated cells) was “decreased”, the “SGK3 binding to complexes” value ([1]; TGFβ-treated cells) was “increased” and the “share of client proteins with affected binding” value ([1]; as stated in rebuttal letter) was 1%. For the same compound, the “CK2 binding to the HSP90β/CDC37 heterocomplex” value ([1]; in cells) was “not alter the binding of CK2”, the “share of kinases with significantly changed binding” value ([1]; of 420 kinase proteins screened) was 4% and the “number of kinases with significantly changed binding” value ([1]; of 420 kinase proteins screened, 10 µM, 3 days) was 17. The “% inhibition by competitor” value ([2]; 0.5 uM KBU2046-biotin) was 64%, the “% inhibition by competitor” value ([2]; 10 uM KBU2046-biotin) was 43% and the “concentration at which effects were evident” value ([3]; CDC37 band increased, HSP90β degradation product decreased) was 10 nM. The “protection from thermolysin digestion” value ([3]; equimolar HSP90β and CDC37) was “protected both proteins from digestion”, the cell invasion ([4]; 10 µM, 3 days) was “inhibits cell invasion with efficacy equal-to-or-greater-than that of genistein” and the effect upon invasion ([4]; after 3 days treatment of cells) was 50%.
